Measured values published in PMC9688307 (2022).
Each block holds one molecule with its values, some of them ahead of it.

Columns and labels:
[1] = tested on: BP63 (DNA, aptamer) CCGGTGGGTGGTCAGGTGGGATAGCGTTCCGCGTATGGCCCAGCGCATCACGGGTTCGCACCA; assay: ITC; settings: 100 mM NaCl, 25 mM KCl, 10 mM MgCl2; 25 mM Tris-HCl pH 8.0, 2% DMSO; 200 μM BPA into 20 μM aptamer
[2] = tested on: BP55 (DNA, aptamer) CCGCCGTTGGTGTGGTGGGCCTAGGGCCGGCGGCGCACAGCTGTTATAGACGTCT; assay: ITC; settings: 100 mM NaCl, 25 mM KCl, 10 mM MgCl2; 25 mM Tris-HCl pH 8.0, 2% DMSO; 500 μM BPA into 30 μM aptamer
[3] = tested on: BP50 (DNA, aptamer) CCGCCGTTGGTGTGGTGGGCCTAGGGCCGGCGGCGCACAGCTGTTATAGA; assay: ITC; settings: 100 mM NaCl, 25 mM KCl, 10 mM MgCl2; 25 mM Tris-HCl pH 8.0, 2% DMSO; 500 μM BPA into 30 μM aptamer
[4] = tested on: BP45 (DNA, aptamer) CCGCCGTTGGTGTGGTGGGCCTAGGGCCGGCGGCGCACAGCTGTT; assay: ITC; settings: 100 mM NaCl, 25 mM KCl, 10 mM MgCl2; 25 mM Tris-HCl pH 8.0, 2% DMSO; 500 μM BPA into 30 μM aptamer
[5] = tested on: BP40 (DNA, aptamer) CCGCCGTTGGTGTGGTGGGCCTAGGGCCGGCGGCGCACAG; assay: ITC; settings: 100 mM NaCl, 25 mM KCl, 10 mM MgCl2; 25 mM Tris-HCl pH 8.0, 2% DMSO; 500 μM BPA into 30 μM aptamer
[6] = tested on: BP35 (DNA, aptamer) CCGCCGTTGGTGTGGTGGGCCTAGGGCCGGCGGCG; assay: ITC; settings: 100 mM NaCl, 25 mM KCl, 10 mM MgCl2; 25 mM Tris-HCl pH 8.0, 2% DMSO; 500 μM BPA into 30 μM aptamer
[7] = tested on: BP34 (DNA, aptamer) CGCCGTTGGTGTGGTGGGCCTAGGGCCGGCGGCG; assay: ITC; settings: 100 mM NaCl, 25 mM KCl, 10 mM MgCl2; 25 mM Tris-HCl pH 8.0, 2% DMSO; 500 μM BPA into 30 μM aptamer
[8] = tested on: BP33 (DNA, aptamer) CCGCCGTTGGTGTGGTGGGCCTAGGGCCGGCGG; assay: ITC; settings: 100 mM NaCl, 25 mM KCl, 10 mM MgCl2; 25 mM Tris-HCl pH 8.0, 2% DMSO; 500 μM BPA into 30 μM aptamer
[9] = tested on: BP31 (DNA, aptamer) CGCCGTTGGTGTGGTGGGCCTAGGGCCGGCG; assay: ITC; settings: 100 mM NaCl, 25 mM KCl, 10 mM MgCl2; 25 mM Tris-HCl pH 8.0, 2% DMSO; 500 μM BPA into 30 μM aptamer
[10] = tested on: BP29 (DNA, aptamer) GCCGTTGGTGTGGTGGGCCTAGGGCCGGC; assay: ITC; settings: 100 mM NaCl, 25 mM KCl, 10 mM MgCl2; 25 mM Tris-HCl pH 8.0, 2% DMSO; 500 μM BPA into 30 μM aptamer
[11] = tested on: BP27 (DNA, aptamer) CCGTTGGTGTGGTGGGCCTAGGGCCGG; assay: ITC; settings: 100 mM NaCl, 25 mM KCl, 10 mM MgCl2; 25 mM Tris-HCl pH 8.0, 2% DMSO; 500 μM BPA into 30 μM aptamer
[12] = tested on: BP25 (DNA, aptamer) CGTTGGTGTGGTGGGCCTAGGGCCG; assay: ITC; settings: 100 mM NaCl, 25 mM KCl, 10 mM MgCl2; 25 mM Tris-HCl pH 8.0, 2% DMSO; 500 μM BPA into 30 μM aptamer
[13] = tested on: BP33-9GT (DNA, aptamer) CCGCCGTTTGTGTGGTGGGCCTAGGGCCGGCGG; assay: ITC; settings: 100 mM NaCl, 25 mM KCl, 10 mM MgCl2; 25 mM Tris-HCl pH 8.0, 2% DMSO; 500 μM BPA into 30 μM aptamer
[14] = tested on: BP33-10GT (DNA, aptamer) CCGCCGTTGTTGTGGTGGGCCTAGGGCCGGCGG; assay: ITC; settings: 100 mM NaCl, 25 mM KCl, 10 mM MgCl2; 25 mM Tris-HCl pH 8.0, 2% DMSO; 500 μM BPA into 30 μM aptamer
[15] = tested on: BP33-12GT (DNA, aptamer) CCGCCGTTGGTTTGGTGGGCCTAGGGCCGGCGG; assay: ITC; settings: 100 mM NaCl, 25 mM KCl, 10 mM MgCl2; 25 mM Tris-HCl pH 8.0, 2% DMSO; 500 μM BPA into 30 μM aptamer
[16] = tested on: BP33-14GT (DNA, aptamer) CCGCCGTTGGTGTTGTGGGCCTAGGGCCGGCGG; assay: ITC; settings: 100 mM NaCl, 25 mM KCl, 10 mM MgCl2; 25 mM Tris-HCl pH 8.0, 2% DMSO; 500 μM BPA into 30 μM aptamer
[17] = tested on: BP33-15GT (DNA, aptamer) CCGCCGTTGGTGTGTTGGGCCTAGGGCCGGCGG; assay: ITC; settings: 100 mM NaCl, 25 mM KCl, 10 mM MgCl2; 25 mM Tris-HCl pH 8.0, 2% DMSO; 500 μM BPA into 30 μM aptamer
[18] = tested on: BP33-17GT (DNA, aptamer) CCGCCGTTGGTGTGGTTGGCCTAGGGCCGGCGG; assay: ITC; settings: 100 mM NaCl, 25 mM KCl, 10 mM MgCl2; 25 mM Tris-HCl pH 8.0, 2% DMSO; 500 μM BPA into 30 μM aptamer
[19] = tested on: BP33-18GT (DNA, aptamer) CCGCCGTTGGTGTGGTGTGCCTAGGGCCGGCGG; assay: ITC; settings: 100 mM NaCl, 25 mM KCl, 10 mM MgCl2; 25 mM Tris-HCl pH 8.0, 2% DMSO; 500 μM BPA into 30 μM aptamer
[20] = tested on: BP33-25GT (DNA, aptamer) CCGCCGTTGGTGTGGTGGGCCTAGTGCCGGCGG; assay: ITC; settings: 100 mM NaCl, 25 mM KCl, 10 mM MgCl2; 25 mM Tris-HCl pH 8.0, 2% DMSO; 500 μM BPA into 30 μM aptamer
[21] = tested on: BP33-26GT (DNA, aptamer) CCGCCGTTGGTGTGGTGGGCCTAGGTCCGGCGG; assay: ITC; settings: 100 mM NaCl, 25 mM KCl, 10 mM MgCl2; 25 mM Tris-HCl pH 8.0, 2% DMSO; 500 μM BPA into 30 μM aptamer
[22] = tested on: BP33-stem-6GT (DNA, aptamer) CCGCCTTTGGTGTGGTGGGCCTAGGGCCGGCGG; assay: ITC; settings: 100 mM NaCl, 25 mM KCl, 10 mM MgCl2; 25 mM Tris-HCl pH 8.0, 2% DMSO; 500 μM BPA into 30 μM aptamer
[23] = tested on: BP33-stem-29GT (DNA, aptamer) CCGCCGTTGGTGTGGTGGGCCTAGGGCCTGCGG; assay: ITC; settings: 100 mM NaCl, 25 mM KCl, 10 mM MgCl2; 25 mM Tris-HCl pH 8.0, 2% DMSO; 500 μM BPA into 30 μM aptamer
[24] = tested on: BP33-stem-30GT (DNA, aptamer) CCGCCGTTGGTGTGGTGGGCCTAGGGCCGTCGG; assay: ITC; settings: 100 mM NaCl, 25 mM KCl, 10 mM MgCl2; 25 mM Tris-HCl pH 8.0, 2% DMSO; 500 μM BPA into 30 μM aptamer
[25] = tested on: BP33-7TA (DNA, aptamer) CCGCCGATGGTGTGGTGGGCCTAGGGCCGGCGG; assay: ITC; settings: 100 mM NaCl, 25 mM KCl, 10 mM MgCl2; 25 mM Tris-HCl pH 8.0, 2% DMSO; 500 μM BPA into 30 μM aptamer
[26] = tested on: BP33-8TA (DNA, aptamer) CCGCCGTAGGTGTGGTGGGCCTAGGGCCGGCGG; assay: ITC; settings: 100 mM NaCl, 25 mM KCl, 10 mM MgCl2; 25 mM Tris-HCl pH 8.0, 2% DMSO; 500 μM BPA into 30 μM aptamer
[27] = tested on: BP33-11TA (DNA, aptamer) CCGCCGTTGGAGTGGTGGGCCTAGGGCCGGCGG; assay: ITC; settings: 100 mM NaCl, 25 mM KCl, 10 mM MgCl2; 25 mM Tris-HCl pH 8.0, 2% DMSO; 500 μM BPA into 30 μM aptamer
[28] = tested on: BP33-13TA (DNA, aptamer) CCGCCGTTGGTGAGGTGGGCCTAGGGCCGGCGG; assay: ITC; settings: 100 mM NaCl, 25 mM KCl, 10 mM MgCl2; 25 mM Tris-HCl pH 8.0, 2% DMSO; 500 μM BPA into 30 μM aptamer
[29] = tested on: BP33-16TA (DNA, aptamer) CCGCCGTTGGTGTGGAGGGCCTAGGGCCGGCGG; assay: ITC; settings: 100 mM NaCl, 25 mM KCl, 10 mM MgCl2; 25 mM Tris-HCl pH 8.0, 2% DMSO; 500 μM BPA into 30 μM aptamer
[30] = tested on: BP33-22TA (DNA, aptamer) CCGCCGTTGGTGTGGTGGGCCAAGGGCCGGCGG; assay: ITC; settings: 100 mM NaCl, 25 mM KCl, 10 mM MgCl2; 25 mM Tris-HCl pH 8.0, 2% DMSO; 500 μM BPA into 30 μM aptamer
[31] = tested on: BP33-20CA (DNA, aptamer) CCGCCGTTGGTGTGGTGGGACTAGGGCCGGCGG; assay: ITC; settings: 100 mM NaCl, 25 mM KCl, 10 mM MgCl2; 25 mM Tris-HCl pH 8.0, 2% DMSO; 500 μM BPA into 30 μM aptamer
[32] = tested on: BP33-21CA (DNA, aptamer) CCGCCGTTGGTGTGGTGGGCATAGGGCCGGCGG; assay: ITC; settings: 100 mM NaCl, 25 mM KCl, 10 mM MgCl2; 25 mM Tris-HCl pH 8.0, 2% DMSO; 500 μM BPA into 30 μM aptamer
[33] = tested on: BP33-27CA (DNA, aptamer) CCGCCGTTGGTGTGGTGGGCCTAGGGACGGCGG; assay: ITC; settings: 100 mM NaCl, 25 mM KCl, 10 mM MgCl2; 25 mM Tris-HCl pH 8.0, 2% DMSO; 500 μM BPA into 30 μM aptamer
[34] = tested on: BP33-23AT (DNA, aptamer) CCGCCGTTGGTGTGGTGGGCCTTGGGCCGGCGG; assay: ITC; settings: 100 mM NaCl, 25 mM KCl, 10 mM MgCl2; 25 mM Tris-HCl pH 8.0, 2% DMSO; 500 μM BPA into 30 μM aptamer
[35] = tested on: BP29-3'-MB (DNA, aptamer) GCCGTTGGTGTGGTGGGCCTAGGGCCGGC; assay: square wave voltammetry, aptamer-modified gold electrode; settings: 100 mM NaCl, 25 mM KCl, 10 mM MgCl2, 25 mM Tris-HCl pH 8.0
[36] = 100 μM tested, no remarkable current change

binding [35, 36]: no
SMILES: Oc1ccc(-c2ccc(O)cc2)cc1

binding [35, 36]: no
SMILES: O=S(=O)(c1ccc(O)cc1)c1ccc(O)cc1

The remaining lines, values behind:

SMILES: CC(C)(c1ccc(O)cc1)c1ccc(O)cc1
binding [1]: no | Kd [2]: 11.6 ± 1.0 µM | Kd [3]: 9.5 ± 0.5 µM | Kd [4]: 12.5 ± 0.8 µM | Kd [5]: 15.4 ± 0.9 µM | Kd [6]: 20.2 ± 1.0 µM | Kd [7]: 307 ± 249 µM | Kd [8]: 10.5 ± 1.5 µM | Kd [9]: 13.4 ± 1.5 µM | Kd [10]: 12.4 ± 3.4 µM | Kd [11]: 56 ± 9.0 µM | binding [12]: no | binding [13]: no | binding [14]: no | binding [15]: no | binding [16]: no | binding [17]: no | binding [18]: no | binding [19]: no | binding [20]: no | binding [21]: no | binding [22]: no | binding [23]: no | Kd [24]: 51.2 ± 10.4 µM | Kd [25]: 68.4 ± 4.9 µM | binding [26]: no | Kd [27]: 24.4 ± 1.8 µM | Kd [28]: 22.6 ± 6.9 µM | Kd [29]: 24.4 ± 1.6 µM | Kd [30]: 15.2 ± 0.9 µM | Kd [31]: 14.6 ± 0.9 µM | Kd [32]: 10.5 ± 0.7 µM | Kd [33]: 16.0 ± 2.2 µM | binding [34]: no | binding ([35]; current increased 88% at 500 μM BPA): yes

SMILES: CN(C)[C@@H]1C(=O)C(C(N)=O)=C(O)[C@@]2(O)C(=O)C3=C(O)c4c(O)cccc4[C@@](C)(O)[C@H]3[C@H](O)[C@@H]12
binding [35, 36]: no

SMILES: CN(C)[C@@H]1C(=O)C(C(N)=O)=C(O)[C@@]2(O)C(=O)C3=C(O)c4c(O)cccc4[C@@](C)(O)[C@H]3C[C@@H]12
binding [35, 36]: no
